Measurements published in PMC9782211 (Microorganisms, 2022).

What was measured:
Type in all cases: cell-based
[1] = system: human mononuclear cells (hMNCs); assay: MTT test, metabolic activity of human mononuclear cells
Protocol: Furthermore, the MTT assay was performed to determine the metabolic activity of the cells. In this test, the determination of cell viability is based on the reduction of the yellow water-soluble substance 3-(4,5-Dimethylthiazol-2-yl)-2,5-diphenyltetrazoliumbromid (MTT) into a blue-violet water-insoluble formacan.

[2] = system: human erythrocytes; assay: Hemolysis assay; conditions: pH 7.4, 37 °C, 30 min
Protocol: The activity of the peptides to lyse freshly isolated human erythrocytes was determined in PBS, pH 7.4 at 37 °C. Dilutions were prepared in duplicate in a round bottom microtiter plate. For that, 20 µL erythrocytes (5 · 10^8 cells/mL) was incubated with 80 µL of a peptide sample at 37 °C for 30 min in a humidified box. The hemolytic activity after incubation was measured by transferring the supernatants into another empty microtiter plate. This plate was read on a microtiter plate reader at 405 nm. Hemolytic activity was expressed as the percentage of released hemoglobin with respect to water/buffer controls (100% release) or controls processed without peptides (0% release).
Red blood cells (RBCs) were obtained from citrated human blood by centrifugation (1500× g, 10 min), washed three times with isotonic 20 mM phosphate-NaCl buffer (pH 7.4), and suspended in the same buffer at a concentration equivalent to 5% of the normal hematocrit. […] The supernatants were analyzed spectrophotometrically (with absorbance at 543 nm) for hemoglobin, and results were expressed as the percentage released with respect to sonicated controls (100% release) or controls processed without peptides (0% release).

[3] = target: hERG ion channel (Homo sapiens, UniProt Q12809); assay: Manual patch clamp, hERG channel currents; conditions: 1 µg/mL, fraction
Protocol: Manual patch clamp experiments were performed in the whole cell configuration [20] at room temperature. An EPC 10 patch clamp amplifier and the PatchMaster software (v2x90.5; both HEKA Elektronik, Germany) were used. […] The data were analyzed using R (version 3.6.3).
The manual patch clamp recordings on the hERG ion channel were performed with the same stimulation protocol as previously described, with an adjusted holding potential of −70 mV. After the establishment of the whole cell, the stimulation protocol was executed every 15 s for a period of 20 min. The application protocol had the following course: 5 min negative control period with an application of 0.1% DMSO, 10 min application of the test compound in one concentration, and 5 min positive control period with an application of E4031 (10 µM).
The extracellular solution for the recordings contained (in mM): 145 NaCl, 4 KCl, 10 glucose, 10 HEPES, 2 CaCl2, and 1 MgCl2; pH was adjusted to 7.4 by adding NaOH. The osmolarity of the solution was adjusted to 305 mOsmol/kg. The intracellular solution contained (in mM): 120 KCl, 1.7 MgCl2, 4 K2ATP, 5 CaCl2, 10 HEPES, and 10 EGTA; pH was adjusted to 7.2 by adding KOH. The osmolarity was adjusted to 292 mOsmol/kg.

Sequence of hERG ion channel (Q12809 whole entry): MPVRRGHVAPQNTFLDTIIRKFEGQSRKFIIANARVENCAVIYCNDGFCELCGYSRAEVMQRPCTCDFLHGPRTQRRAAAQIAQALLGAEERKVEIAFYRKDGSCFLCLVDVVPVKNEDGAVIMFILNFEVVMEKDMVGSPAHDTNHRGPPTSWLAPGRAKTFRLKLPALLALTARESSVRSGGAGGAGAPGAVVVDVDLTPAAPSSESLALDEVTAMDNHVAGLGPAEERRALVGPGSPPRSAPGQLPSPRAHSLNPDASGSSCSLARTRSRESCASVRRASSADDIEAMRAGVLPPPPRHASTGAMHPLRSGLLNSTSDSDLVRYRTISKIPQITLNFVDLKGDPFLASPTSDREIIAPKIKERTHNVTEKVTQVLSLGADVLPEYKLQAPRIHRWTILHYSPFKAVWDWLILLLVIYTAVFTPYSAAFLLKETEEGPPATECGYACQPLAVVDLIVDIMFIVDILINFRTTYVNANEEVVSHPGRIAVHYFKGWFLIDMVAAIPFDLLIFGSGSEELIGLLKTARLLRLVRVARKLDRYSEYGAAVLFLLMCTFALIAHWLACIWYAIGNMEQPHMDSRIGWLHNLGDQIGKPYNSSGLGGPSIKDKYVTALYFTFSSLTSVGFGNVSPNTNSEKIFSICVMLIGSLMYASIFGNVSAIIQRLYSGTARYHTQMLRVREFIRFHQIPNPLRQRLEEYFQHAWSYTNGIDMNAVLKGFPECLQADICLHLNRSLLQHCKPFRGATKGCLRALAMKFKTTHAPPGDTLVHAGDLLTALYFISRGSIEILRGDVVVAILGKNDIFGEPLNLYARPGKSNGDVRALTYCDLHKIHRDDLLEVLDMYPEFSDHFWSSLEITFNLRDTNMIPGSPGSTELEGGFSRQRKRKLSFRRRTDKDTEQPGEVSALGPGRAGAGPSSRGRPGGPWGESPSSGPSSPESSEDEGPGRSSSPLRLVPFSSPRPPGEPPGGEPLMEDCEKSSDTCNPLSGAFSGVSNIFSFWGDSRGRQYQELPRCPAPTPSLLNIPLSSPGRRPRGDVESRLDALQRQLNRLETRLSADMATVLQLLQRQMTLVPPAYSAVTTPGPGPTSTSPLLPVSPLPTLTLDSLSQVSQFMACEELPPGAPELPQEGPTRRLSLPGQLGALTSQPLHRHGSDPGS

N=C(N)NCCC[C@H](NC(=O)[C@H](Cc1ccc(O)cc1)NC(=O)[C@H](CCCCN)NC(=O)[C@H](CCCCN)NC(=O)[C@H](CS)NC(=O)CN)C(=O)N[C@@H](CCCNC(=N)N)C(=O)N[C@@H](Cc1ccccc1)C(=O)N[C@@H](CCCNC(=N)N)C(=O)N[C@@H](Cc1c[nH]c2ccccc12)C(=O)N[C@@H](CCCCN)C(=O)N[C@@H](Cc1ccccc1)C(=O)N[C@@H](CCCCN)C(=O)NCC(=O)N[C@@H](CCCCN)C(=O)N[C@@H](Cc1ccccc1)C(=O)N[C@@H](Cc1c[nH]c2ccccc12)C(=O)N[C@@H](Cc1ccccc1)C(=O)N[C@@H](Cc1c[nH]c2ccccc12)C(=O)NCC(N)=O [Pep19-2.5] was tested, and the “metabolic state of the hMNC” value ([1]; at 100 μg/mL) was “decreases dramatically”, the “concentration above which cytotoxicity increases (MTT)” value ([1]; hMNC, MTT test, Figure 1) was “above 20 μg/mL” and the lysis of erythrocytes ([2]; at 100 μg/mL, released hemoglobin vs 100% release control) was ≤ 20%. For the same compound, the “concentration above which cytotoxicity increases (hemolysis)” value [2] was “above 20 μg/mL” and the “Rel. Rem. Current ± SD (Manual Patch-Clamp)” value [3] was 1.00 ± 0.04.
